Results from article PMC8217813, “Bridging Computational Vaccinology and Vaccine Development Through Systematic Identification, Characterization, and Downselection of Conserved and Variable Circumsporozoite Protein CD4 T Cell Epitopes From Diverse Plasmodium falciparum Strains” (Frontiers in Immunology, 2021).

System: CD4 T cells co-cultured with autologous DCs from PBMCs
Assay type: cell-based, human
[1] = DR1 donors N=5, positive = Stimulation Index ≥1.5-fold above baseline, ICCS, 5 µg/mL peptide
[2] = DR3 donors N=6, positive = Stimulation Index ≥1.5-fold above baseline, ICCS, 5 µg/mL peptide
[3] = DR4 donors N=10, positive = Stimulation Index ≥1.5-fold above baseline, ICCS, 5 µg/mL peptide
[4] = DR7 donors N=4, positive = Stimulation Index ≥1.5-fold above baseline, ICCS, 5 µg/mL peptide
[5] = DR8 donors N=4, positive = Stimulation Index ≥1.5-fold above baseline, ICCS, 5 µg/mL peptide
[6] = DR9 donors N=4, positive = Stimulation Index ≥1.5-fold above baseline, ICCS, 5 µg/mL peptide
[7] = DR11 donors N=4, positive = Stimulation Index ≥1.5-fold above baseline, ICCS, 5 µg/mL peptide
[8] = DR13 donors N=7, positive = Stimulation Index ≥1.5-fold above baseline, ICCS, 5 µg/mL peptide
[9] = DR15 donors N=7, positive = Stimulation Index ≥1.5-fold above baseline, ICCS, 5 µg/mL peptide

## DQHIEQYLKTIQNSLSTEWS [ICS4]
DR1 donors N=5, positive = Stimulation Index ≥1.5-fold above baseline, ICCS after 14-day co-culture, 5 µg/mL peptide
  Percentage of donors demonstrating IFN-γ responses, DR1: 0%
[1]
  Percentage of donors demonstrating IL-2 responses, DR1: 20%
  Percentage of donors demonstrating IL-4 responses, DR1: 0%
  Percentage of donors demonstrating IL-10 responses, DR1: 0%
  Percentage of donors demonstrating TNF-α responses, DR1: 0%
DR3 donors N=6, positive = Stimulation Index ≥1.5-fold above baseline, ICCS after 14-day co-culture, 5 µg/mL peptide
  Percentage of donors demonstrating IFN-γ responses, DR3: 0%
[2]
  Percentage of donors demonstrating IL-2 responses, DR3: 0%
  Percentage of donors demonstrating IL-4 responses, DR3: 17%
  Percentage of donors demonstrating IL-10 responses, DR3: 0%
  Percentage of donors demonstrating TNF-α responses, DR3: 0%
DR4 donors N=10, positive = Stimulation Index ≥1.5-fold above baseline, ICCS after 14-day co-culture, 5 µg/mL peptide
  Percentage of donors demonstrating IFN-γ responses, DR4: 30%
[3]
  Percentage of donors demonstrating IL-2 responses, DR4: 20%
  Percentage of donors demonstrating IL-4 responses, DR4: 0%
  Percentage of donors demonstrating IL-10 responses, DR4: 10%
  Percentage of donors demonstrating TNF-α responses, DR4: 30%
DR7 donors N=4, positive = Stimulation Index ≥1.5-fold above baseline, ICCS after 14-day co-culture, 5 µg/mL peptide
  Percentage of donors demonstrating IFN-γ responses, DR7: 0%
[4]
  Percentage of donors demonstrating IL-2 responses, DR7: 0%
  Percentage of donors demonstrating IL-4 responses, DR7: 0%
  Percentage of donors demonstrating IL-10 responses, DR7: 0%
  Percentage of donors demonstrating TNF-α responses, DR7: 0%
DR8 donors N=4, positive = Stimulation Index ≥1.5-fold above baseline, ICCS after 14-day co-culture, 5 µg/mL peptide
  Percentage of donors demonstrating IFN-γ responses, DR8: 0%
[5]
  Percentage of donors demonstrating IL-2 responses, DR8: 0%
  Percentage of donors demonstrating IL-4 responses, DR8: 0%
  Percentage of donors demonstrating IL-10 responses, DR8: 0%
  Percentage of donors demonstrating TNF-α responses, DR8: 0%
DR9 donors N=4, positive = Stimulation Index ≥1.5-fold above baseline, ICCS after 14-day co-culture, 5 µg/mL peptide
  Percentage of donors demonstrating IFN-γ responses, DR9: 0%
[6]
  Percentage of donors demonstrating IL-2 responses, DR9: 0%
  Percentage of donors demonstrating IL-4 responses, DR9: 0%
  Percentage of donors demonstrating IL-10 responses, DR9: 0%
  Percentage of donors demonstrating TNF-α responses, DR9: 0%
DR11 donors N=4, positive = Stimulation Index ≥1.5-fold above baseline, ICCS after 14-day co-culture, 5 µg/mL peptide
  Percentage of donors demonstrating IFN-γ responses, DR11: 0%
[7]
  Percentage of donors demonstrating IL-2 responses, DR11: 25%
  Percentage of donors demonstrating IL-4 responses, DR11: 0%
  Percentage of donors demonstrating IL-10 responses, DR11: 0%
  Percentage of donors demonstrating TNF-α responses, DR11: 0%
DR13 donors N=7, positive = Stimulation Index ≥1.5-fold above baseline, ICCS after 14-day co-culture, 5 µg/mL peptide
  Percentage of donors demonstrating IFN-γ responses, DR13: 0%
[8]
  Percentage of donors demonstrating IL-2 responses, DR13: 0%
  Percentage of donors demonstrating IL-4 responses, DR13: 14%
  Percentage of donors demonstrating IL-10 responses, DR13: 0%
  Percentage of donors demonstrating TNF-α responses, DR13: 0%
DR15 donors N=7, positive = Stimulation Index ≥1.5-fold above baseline, ICCS after 14-day co-culture, 5 µg/mL peptide
  Percentage of donors demonstrating IFN-γ responses, DR15: 29%
[9]
  Percentage of donors demonstrating IL-2 responses, DR15: 14%
  Percentage of donors demonstrating IL-4 responses, DR15: 0%
  Percentage of donors demonstrating IL-10 responses, DR15: 0%
  Percentage of donors demonstrating TNF-α responses, DR15: 29%
Median stimulation index across donors, response with peptide divided by response with no peptide
  median SI, IFN-γ recall responses: 0.74
